Patent US12011433B2 (UNIVERSITÁ DEGLI STUDI DI BARI “ALDO MORO”, priority 2016, dated 2024)
Where two headings read alike, the source gives them in different places. Values belong to the compound of their own block, whether it stands above or below them.

Columns and labels:
[1] = target: COX-2 (Mus musculus (Mouse), UniProt Q05769); test: COX-2 expression in LPS-treated BV2 microglial cells, western blotting; format: cell-based; details: LPS-stimulated BV2 cells
Protocol: (§1) Cells were then incubated for different times at 37° C. with LPS, as pro-inflammatory stimulus. Experiments included cells grown in medium alone (control).
(§2) The tissue and cell culture lysates were vortexed for 15-20 s and, then, centrifuged at 12,800×g for 20 min. The protein concentration in the supernatant was spectrophotometrically determined by Bradford's protein assay (Bradford, 1976). Protein samples were diluted with sample buffer (0.5 M Tris-HCl pH=6.8, 10% glycerol, 10% (w/v) SDS, 5% 2-mercaptoethanol, 0.05% (w/v) bromophenol blue) and then boiled for 3 min. Proteins (25 μg/lane) and prestained standards (BioRad Laboratories, Hercules, CA, USA) were loaded on 7% or 12% SDS precast polyacrylamide gels (BioRad Laboratories).
After electrophoresis, the resolved proteins were transferred from the gel to nitrocellulose membranes. A blotting buffer [20 mMTris/150 mM glycine, pH=8.0, 20% (v/v) methanol] was used for gel and membrane saturation and blotting. […]

[2] = tested on: BV2 microglial cells; test: BV2 microglial cell viability, MTT reduction assay; format: cell-based; details: 24 h, P6 0.5 and 1 μM, mofezolac 0.1 and 0.5 μM, alone or with LPS
Protocol: as §1
Cell viability of microglial cells was quantified using the MTT reduction assay. The cells (8×10^3/well) were grown in 96-well plates (Becton Dickinson Labware) in complete medium and treated with different concentration of COX inhibitors, in presence or absence of LPS. Untreated cells were used as a control. A PBS 1× solution of MTT (5 mg/mL) was prepared and added to the cell medium at a final concentration of 0.5 mg/mL. Cells were incubated for 4 h at 37° C. and 5% CO2 to allow the MTT metabolism. The formazan crystals formed (from MTT) into the cells were solubilized with DMSO (Sigma-Aldrich). The levels of MTT formazan were determined measuring the optical density at λ=560 nm and subtracting the background (λ=670 nm) with a Victor Multiplate Reader (Wallac). Optical density was directly correlated to cell quantity.

[3] = tested on: PGE2; test: PGE2 release in LPS-stimulated BV2 microglial cells, competitive binding immunoassay; format: cell-based; details: for PGE2 release (ng/ml) at 48 h: LPS-stimulated BV2 cells; for PGE2 production reduction: LPS-treated BV2 cells
Protocol: Microglial cells were cultured in 6-well plates at a density of 3×10^6 cells/well. […] The cultures were maintained at 37° C. for 24 and 48 h in a humidified air containing a 5% CO2. PGE2 levels were determined in the supernatant using a competitive binding immunoassay (Cayman Chemical, Ann Arbor, MI, USA) following the manufacturer's instructions. Unstimulated cells were included as a control. PGE2 amount determination in the brain was performed in the tissue extracts, according to the manufacturer's instructions. The optical density was measured at λ=405-420 nm with precision microplate reader and the amount of PGE2 (ng/mL) was calculated using a PGE2 standard curve.

[4] = target: COX-1 (Mus musculus (Mouse), UniProt P22437); test: COX-1 expression in LPS-treated BV2 microglial cells, western blotting; format: cell-based; details: for COX-1 expression reduction: LPS-activated BV2 cells
Protocol: as §1, §2
After electrophoresis, the resolved proteins were transferred from the gel to nitrocellulose membranes. A blotting buffer [20 mMTris/150 mM glycine, pH=8.0, 20% (v/v) methanol] was used for gel and membrane saturation and blotting. Then, membranes were incubated in the dark with 1 μg/mL mouse monoclonal antibody (MoAb) anti-COX-1 and rabbit polyclonal Ab anti-COX-2 (1:1000) (both from AbCam, Cambridge, UK), rabbit polyclonal Ab anti p-IkB-α (1:200), mouse polyclonal Ab anti β-actin (1:500) (all from Santa Cruz Biotechnology), mouse MoAb anti-glial fibrillary acidic protein (GFAP) (1:200) and mouse mAb anti-ionized calcium-binding adapter molecule-1 (Iba-1) (1:200) (both from Merck Millipore) overnight at 4° C. The membranes were washed with 0.1% Tween 20-PBS (for 20 min, 3 times) and then incubated with the secondary antibody diluted 1:2000 for 60 min. Bands were visualized by chemiluminescence detection (Invitrogen, Milan, Italy). The β-actin level was used as a protein loading control. For tissue analysis, obtained bands were normalized to the level of β-actin performed for each cerebral area tested. For cell cultures the bands were normalized to the β-actin level in each experimental condition.

[5] = target: COX-2 (Homo sapiens, UniProt P35354); test: colorimetric COX Inhibitor screening Assay (peroxidase component, oxidized TMPD at 590 nm); format: biochemical
Protocol: Human cyclooxygenase inhibitory activity was determined by a colorimetric COX Inhibitor screening Assay which measures the peroxidase component of the cyclooxygenases, monitoring the appearance of oxidized N,N,N′,N′-tetramethyl-p-phenylenediamine (TMPD) at 590 nm.

[6] = GALMOF0 chemical stability in buffers by HPLC; format: physicochemical; details: pH 1, 3, 7.3 and 8, 37° C., till 60 min
Protocol: HPLC analyses were performed to determine the chemical stability and the purity grade of GALMOF0 as a representative compound of the set.
Aminica column was used, CH3CN/10 mM Tris-HCl (pH=8) (15:85) was used as mobile phase, T=40° C.; λ=254 nm.
200 μL of 2.5 mg/mL di GALMOF0 in CH3CN were added to 1800 μL of a buffer (pH=1, 3, 7.3 and 8). Each sample was kept stirred at 37° C. Buffer with pH=1 and 3, obtained with 0.1N HCl and 50 mM HEPES, was selected to simulate the chemical stability at gastric level, whereas pH=7.3 and 8, obtained by 50 mM TRIS-HCl, simulated its stability in the blood and gut, respectively.
At 15, 30, 60 min and 48 h, 300 μL of the sample were withdraw, diluted with 300 μL of CH3CN (final concentration=[…]) and tested by HPLC.

[7] = GALMOF0 metabolic stability, incubation with rat liver microsomes; format: in vitro ADME
Protocol: GALMOF0 metabolic stability was determined through its incubation with rat liver microsomes and monitoring the disappearance of its chromatogram peak within 30 min.
The in vitro test was carried out in the presence of rat liver S9 fraction (Tebu-bio, Milan, Italy).
Briefly, GALMOF0 (10 μM) in 100 mM of phosphate buffer (pH=7.4) was mixed with the NADPH regeneration system to a final concentration of 1.3 mM NADP^+, 3.3 mM glucose 6-phosphate and 0.4 U/ml glucose 6-phosphate dihydrogenase and 3.3 mM MgCl2. The experiment started with the addition of rat microsomes (1 mg/ml) that were incubated for 30 min at 37° C. The reaction was blocked by adding an equal volume of cold CH3CN. The samples were centrifuged at 4,600 rpm for 15 min at 4° C. The supernatant was separated and the organic phase analysed by HPLC in the same conditions used for the samples of the “chemical stability study”.
The residual GALMOF0 percentage after 30 min was calculated according the following equation: Residual GALMOF0(%) at 30 min=Cmicr+NADPH/Cmicr×100 where Cmicr+NADPH is the GALMOF0 concentration after the incubation with the microsomes and the NADPH regeneration system (FIG. 8); Cmicr is the GALMOF0 concentration after the incubation with only the microsomes (FIG. 9).

[8] = tested on: Caco-2 cells; test: Caco-2 monolayer efflux assay, Apparent Permeability (Papp), with or without GLUT-1 inhibitor phloretin; format: in vitro ADME, Human
Protocol: (§3) In a monolayer efflux assay, the Apparent Permeability (Papp) in both basolateral to apical [Papp(B→A)] and apical to basolateral [Papp(A→B)] directions was determined for each compound (FIG. 2). Human colonic adenocarcinoma cell line (Caco-2) presents a facilitated transport system at the apical and basolateral surface. Caco-2 cells express high levels of GLUT-1 that are localized to the basolateral membrane and transport glucose to the serosal side.
(§4) The Papp(B→A) flux of each compound alone or in the presence of phloretin, a GLUT-1 inhibitor, has been determined. Since GLUT-1 is express in the basolateral compartment a high B→A flux means that the transport is GLUT-1 mediated because B→A flux represents the active transport.
(§5) A→B flux, which represents the passive transport, has also been determined for each compound (Table 2).

[9] = tested on: GLUT-1; test: as above; format: in vitro ADME, Human; details: human
Protocol: as §3, §4, §5

Chain of COX-2 (Homo sapiens, UniProt P35354) (P35354 18-604 limits assumed): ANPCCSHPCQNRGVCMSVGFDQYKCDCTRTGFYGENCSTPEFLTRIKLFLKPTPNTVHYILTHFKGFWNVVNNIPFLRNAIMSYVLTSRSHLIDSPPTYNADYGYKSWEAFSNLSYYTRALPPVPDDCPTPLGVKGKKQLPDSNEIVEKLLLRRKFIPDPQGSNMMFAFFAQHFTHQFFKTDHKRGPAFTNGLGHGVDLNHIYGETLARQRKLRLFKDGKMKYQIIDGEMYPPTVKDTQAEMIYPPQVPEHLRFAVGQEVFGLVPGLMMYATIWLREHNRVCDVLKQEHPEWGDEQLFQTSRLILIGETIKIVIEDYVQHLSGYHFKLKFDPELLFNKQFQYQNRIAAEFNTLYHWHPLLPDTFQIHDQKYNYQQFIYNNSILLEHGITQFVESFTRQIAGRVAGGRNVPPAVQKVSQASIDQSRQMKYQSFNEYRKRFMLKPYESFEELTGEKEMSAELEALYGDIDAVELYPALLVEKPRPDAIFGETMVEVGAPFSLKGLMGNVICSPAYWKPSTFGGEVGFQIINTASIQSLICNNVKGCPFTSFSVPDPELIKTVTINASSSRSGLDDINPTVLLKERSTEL

- COX-2 protein levels [1]: unaffected
- COX-1 expression levels ([4]; BV2 cells, 48 h of incubation with LPS, 1 h pre-treated): significantly reduced
- COX-1 expression reduction ([4]; 0.5 μM): 67%
- COX-1 expression reduction ([4]; 1.0 μM): 79%
SMILES: Cc1onc(-c2ccc(Cl)o2)c1-c1ccccc1 [Compound P6, 3-(5-chlorofuran-2-yl)-5-methyl-4-phenylisoxazole]
- cell toxicity [2]: No cell toxicity
- PGE2 release (ng/ml) at 48 h ([3]; 0.5 μM inhibitor + LPS): 0.21 ng/mL
- PGE2 release (ng/ml) at 48 h ([3]; 1 μM inhibitor + LPS): 0.12 ng/mL
- PGE2 production reduction ([3]; at 0.5 μM as printed in the text): 78%
- PGE2 production reduction ([3]; at 1 μM as printed in the text): 88%

SMILES: COc1ccc(-c2noc(CC(=O)OCC3OC(O)C(O)C(O)C3O)c2-c2ccc(OC)cc2)cc1 [GALMOF0, ((2S,3R,4S,6R)-3,4,5,6-tetrahydroxytetrahydro-2H-pyrano-2-yl-) methyl-(2-(3,4-di(4-metoxyphenyl)isoxazol-5-yl)acetate]
- inhibition at 50 µM ([5]; at 50 μM, the highest concentration tested): 87%
- IC50 ([5]; human cyclooxygenase): 3.1 µM
- chemical stability, chromatogram profile [6]: no variation of the chromatogram profile was observed
- Cmicr, concentration after the incubation ([7]; incubated with only the microsomes, 30 min): 70.51 mAU*s
- Cmicr+NADPH, concentration after the incubation ([7]; incubated with the microsomes and the NADPH regeneration system, 30 min): 68.02 mAU*s
- residual GALMOF0 after 30 min of treatment with microsomes ([7]; rat liver microsomes 1 mg/ml, NADPH regeneration system, 10 μM, 37° C.): 96%
- Papp B → A, Phloretin ([8]; in the presence of 100 mM Phloretin): 61 ×10⁻⁶ cm/s
- reduction of the basolateral to apical flux (Papp B→A) in the presence of phloretin ([8]; phloretin vs alone): 30%
- Papp A→B ([9]; compound alone, read-out: Papp A → B): 38 ×10⁻⁶ cm/s
- Papp B→A ([9]; compound alone, read-out: Papp B → A): 87.5 ×10⁻⁶ cm/s
- Papp A→B ([9]; with phloretin (GLUT-1 inhibitor), in Phloretin, read-out: Papp A → B, Phloretin): 36.8 ×10⁻⁶ cm/s
- Papp B→A ([9]; with phloretin (GLUT-1 inhibitor), in Phloretin, read-out: Papp B → A, Phloretin): 61 ×10⁻⁶ cm/s
